Test results from patent US20070004660A1, “Synergistic Modulation of Flt3 Kinase Using Alkylquinolines and Alkylquinazolines” (priority 2005, published 2007).

Target: T1, isolated kinase domain of the human FLT3 receptor (a.a. 571-993) (Homo sapiens, UniProt P36888)
T1 construct: human FLT3 receptor (a.a. 571-993)
T1 sequence (P36888 571-993): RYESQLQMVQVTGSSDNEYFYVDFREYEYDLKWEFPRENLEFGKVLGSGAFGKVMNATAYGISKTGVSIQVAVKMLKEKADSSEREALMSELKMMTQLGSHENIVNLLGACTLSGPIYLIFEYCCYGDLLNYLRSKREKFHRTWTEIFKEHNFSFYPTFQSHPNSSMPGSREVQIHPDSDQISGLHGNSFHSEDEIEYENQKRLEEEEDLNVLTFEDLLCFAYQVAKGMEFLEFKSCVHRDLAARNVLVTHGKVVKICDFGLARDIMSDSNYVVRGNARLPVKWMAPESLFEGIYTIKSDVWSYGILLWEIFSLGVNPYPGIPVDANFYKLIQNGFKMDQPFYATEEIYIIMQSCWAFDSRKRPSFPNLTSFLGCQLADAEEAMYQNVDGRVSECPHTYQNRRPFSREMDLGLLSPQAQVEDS
Assay: FLT3 fluorescence polarization kinase assay
Assay type: biochemical
Details: 150 uM ATP; uncertainty ±10%

SMILES	IC50
CN1CCN(c2ccc3c(C4CCN(C(=O)Nc5ccc(N6CCOCC6)cc5)CC4)ncnc3c2)CC1 [Example 135, 4-[7-(4-Methyl-piperazin-1-yl)-quinazolin-4-yl]-piperidine-1-carboxylic acid (4-morpholin-4-yl-phenyl)-amide]	0.027 µM
CC(=O)N1CCC[C@H]1COc1ccc2c(C3CCN(C(=O)Nc4ccc(N5CCCC5)cc4)CC3)ncnc2c1 [Example 162, (S)-4-[7-(1-Acetyl-pyrrolidin-2-ylmethoxy)-quinazolin-4-yl]-piperidine-1-carboxylic acid (4-pyrrolidin-1-yl-phenyl)-amide]	0.032 µM
O=C(Nc1ccc(N2CCCC2)cc1)N1CCC(c2ncnc3cc(N4CCOCC4)ccc23)CC1 [Compound 181, 4-(7-Morpholin-4-yl-quinazolin-4-yl)-piperidine-1-carboxylic acid (4-pyrrolidin-1-yl-phenyl)-amide]	0.01 µM
O=C(Nc1ccc(N2CCCC2)cc1)N1CCC(c2ncnc3cc(OCCN4CCOC4=O)ccc23)CC1 [Example 147, 4-{7-[2-(2-Oxo-oxazolidin-3-yl)-ethoxy]-quinazolin-4-yl}-piperidine-1-carboxylic acid (4-pyrrolidin-1-yl-phenyl)-amide]	0.027 µM
CCN(CC)CCCOc1ccc2c(C3CCN(C(=O)Nc4ccc(N5CCOCC5)cc4)CC3)ncnc2c1 [Example 134, 4-[7-(3-Diethylamino-propoxy)-quinazolin-4-yl]-piperidine-1-carboxylic acid (4-morpholin-4-yl-phenyl)-amide]	0.002 µM
CN(C)C(=O)N1CCN(c2ccc3c(C4CCN(C(=O)Nc5ccc(N6CCOCC6)cc5)CC4)ncnc3c2)CC1 [Example 143, 4-{4-[1-(4-Morpholin-4-yl-phenylcarbamoyl)-piperidin-4-yl]-quinazolin-7-yl}-piperazine-1-carboxylic acid dimethylamide]	0.004 µM
CN1CCN(CCOc2ccc3c(C4CCN(C(=O)Nc5ccc(N6CCOCC6)cc5)CC4)ncnc3c2)CC1 [Example 156, 4-{7-[2-(4-Methyl-piperazin-1-yl)-ethoxy]-quinazolin-4-yl}-piperidine-1-carboxylic acid (4-morpholin-4-yl-phenyl)-amide]	0.006 µM
CC(C)Oc1ccc(NC(=O)N2CCC(c3ncnc4ccc(C#CCN5CCOCC5)cc34)CC2)cc1 [Example 15, 4-[6-(3-Morpholin-4-yl-prop-1-ynyl)-quinazolin-4-yl]-piperidine-1-carboxylic acid (4-isopropoxy-phenyl)-amide]	0.046 µM
O=C(Nc1ccc(N2CCCC2)cc1)N1CCC(c2ncnc3cc(N4CCNC4=O)ccc23)CC1 [Compound 178, 4-[7-(2-Oxo-imidazolidin-1-yl)-quinazolin-4-yl]-piperidine-1-carboxylic acid (4-pyrrolidin-1-yl-phenyl)-amide]	0.01 µM
O=C(COc1ccc2c(C3CCN(C(=O)Nc4ccc(N5CCCC5)cc4)CC3)ncnc2c1)N1CCOCC1 [Example 172, 4-[7-(2-Morpholin-4-yl-2-oxo-ethoxy)-quinazolin-4-yl]-piperidine-1-carboxylic acid (4-pyrrolidin-1-yl-phenyl)-amide]	0.542 µM
CN1CCN(CCOc2ccc3c(C4CCN(C(=O)Nc5ccc(N6CCCC6)cc5)CC4)ncnc3c2)CC1=O [Compound 202, 4-{7-[2-(4-Methyl-3-oxo-piperazin-1-yl)-ethoxy]-quinazolin-4-yl}-piperidine-1-carboxylic acid (4-pyrrolidin-1-yl-phenyl)-amide]	0.09 µM
CC(=O)N1CC(Oc2ccc3c(C4CCN(C(=O)Nc5ccc(N6CCCC6)cc5)CC4)ncnc3c2)C1 [Example 170, 4-[7-(1-Acetyl-azetidin-3-yloxy)-quinazolin-4-yl]-piperidine-1-carboxylic acid (4-pyrrolidin-1-yl-phenyl)-amide]	0.29 µM
CCN1CCN(c2ccc3c(C4CCN(C(=O)Nc5ccc(N6CCCC6)cc5)CC4)ncnc3c2)CC1 [Compound 187, 4-[7-(4-Ethyl-piperazin-1-yl)-quinazolin-4-yl]-piperidine-1-carboxylic acid (4-pyrrolidin-1-yl-phenyl)-amide]	0.146 µM
O=C(CO)N1CCN(c2ccc3c(C4CCN(C(=O)Nc5ccc(N6CCCC6)cc5)CC4)ncnc3c2)CC1 [Compound 201, 4-{7-[4-(2-Hydroxy-acetyl)-piperazin-1-yl]-quinazolin-7-yl}-piperidine-1-carboxylic acid (4-pyrrolidin-1-yl-phenyl)-amide]	0.017 µM
CN1CCN(c2ccc3c(C4CCN(C(=O)Nc5ccc(N6CCCC6)cc5)CC4)ncnc3c2)CC1 [Example 159, 4-[7-(4-Methyl-piperazin-1-yl)-quinazolin-4-yl]-piperidine-1-carboxylic acid (4-pyrrolidin-1-yl-phenyl)-amide]	0.007 µM
CN(C)C(=O)N1CCN(CCCOc2ccc3c(C4CCN(C(=O)Nc5ccc(N6CCCC6)cc5)CC4)ncnc3c2)CC1 [Example 165, 4-(3-{4-[1-(4-Pyrrolidin-1-yl-phenylcarbamoyl)-piperidin-4-yl]-quinazolin-7-yloxy}-propyl)-piperazine-1-carboxylic acid dimethylamide]	0.015 µM
COc1cc2ncnc(C3CCN(C(=O)Nc4ccc(C5CCCCC5)cc4)CC3)c2cc1OC [Example 21, 4-(6,7-Dimethoxy-quinazolin-4-yl)-piperidine-1-carboxylic acid (4-cyclohexyl-phenyl)-amide]	0.007 µM
O=C(Nc1ccc(N2CCCC2)cc1)N1CCC(c2ncnc3cc(OC4CCOCC4)ccc23)CC1 [Compound 189, 4-[7-(Tetrahydro-pyran-4-yloxy)-quinazolin-4-yl]-piperidine-1-carboxylic acid (4-pyrrolidin-1-yl-phenyl)-amide]	1.13 µM
CN1CCN(CCCOc2cc3ncnc(C4CCN(C(=O)Nc5ccc(N6CCOCC6)cc5)CC4)c3cc2F)CC1 [Compound 205, 4-{6-Fluoro-7-[3-(4-methyl-piperazin-1-yl)-propoxy]-quinazolin-4-yl}-piperidine-1-carboxylic acid (4-morpholin-4-yl-phenyl)-amide]	0.063 µM
O=C(Nc1ccc(N2CCCC2)cc1)N1CCC(c2ncnc3cc(OCCN4CCC[C@H]4CO)ccc23)CC1 [Example 152, (S)-4-{7-[2-(2-Hydroxymethyl-pyrrolidin-1-yl)-ethoxy]-quinazolin-4-yl}-piperidine-1-carboxylic acid (4-pyrrolidin-1-yl-phenyl)-amide]	0.018 µM
O=C(Nc1ccc(N2CCCC2)cc1)N1CCC(c2ncnc3cc(N4CCC4)ccc23)CC1 [Example 173, 4-(7-Azetidin-1-yl-quinazolin-4-yl)-piperidine-1-carboxylic acid (4-pyrrolidin-1-yl-phenyl)-amide]	0.001 µM
COc1cc2ncnc(C3CCN(C(=O)Nc4ccc5[nH]ccc5c4)CC3)c2cc1OC [Example 23, 4-(6,7-Dimethoxy-quinazolin-4-yl)-piperidine-1-carboxylic acid (1H-indol-5-yl)-amide]	0.39 µM
COc1cc2ncnc(C3CCN(C(=O)Nc4ccc5ncsc5c4)CC3)c2cc1OC [Example 24, 4-(6,7-Dimethoxy-quinazolin-4-yl)-piperidine-1-carboxylic acid benzothiazol-6-ylamide]	5.5 µM
COc1cc2ncnc(C3CCN(C(=O)Nc4ccc(N5CCCCC5)cc4)CC3)c2cc1OC [Example 19, 4-(6,7-Dimethoxy-quinazolin-4-yl)-piperidine-1-carboxylic acid (4-piperidin-1-yl-phenyl)-amide]	0.017 µM
O=C(Nc1ccc(N2CCCC2)cc1)N1CCC(c2ncnc3cc(NCCO)ccc23)CC1 [Example 175, 4-[7-(2-Hydroxy-ethylamino)-quinazolin-4-yl]-piperidine-1-carboxylic acid (4-pyrrolidin-1-yl-phenyl)-amide]	0.001 µM
CN1CCN(CCCOc2ccc3c(C4CCN(C(=O)Nc5ccc(N6CCCC6)cc5)CC4)ncnc3c2)CC1 [Example 158, 4-{7-[3-(4-Methyl-piperazin-1-yl)-propoxy]-quinazolin-4-yl}-piperidine-1-carboxylic acid (4-pyrrolidin-1-yl-phenyl)-amide]	0.008 µM
O=C(Nc1ccc(N2CCCC2)cc1)N1CCC(c2ncnc3cc(N4CCC(F)CC4)ccc23)CC1 [Compound 195, 4-[7-(4-Fluoro-piperidin-1-yl)-quinazolin-4-yl]-piperidine-1-carboxylic acid (4-pyrrolidin-1-yl-phenyl)-amide]	0.163 µM
CCNC(=O)N1CCN(c2ccc3c(C4CCN(C(=O)Nc5ccc(N6CCCC6)cc5)CC4)ncnc3c2)CC1 [Compound 199, 4-{4-[1-(4-Pyrrolidin-1-yl-phenylcarbamoyl)-piperidin-4-yl]-quinazolin-7-yl}-piperazine-1-carboxylic acid ethylamide]	0.028 µM
CC(=O)N1CCC(COc2ccc3c(C4CCN(C(=O)Nc5ccc(N6CCCC6)cc5)CC4)ncnc3c2)CC1 [Example 163, 4-[7-(1-Acetyl-piperidin-4-ylmethoxy)-quinazolin-4-yl]-piperidine-1-carboxylic acid (4-pyrrolidin-1-yl-phenyl)-amide]	0.011 µM
O=C(Nc1ccc(N2CCOCC2)cc1)N1CCC(c2ncnc3cc(N4CCN(CCO)CC4)ccc23)CC1 [Example 137, 4-{7-[4-(2-Hydroxy-ethyl)-piperazin-1-yl]-quinazolin-4-yl}-piperidine-1-carboxylic acid (4-morpholin-4-yl-phenyl)-amide]	0.012 µM
